In brackets after ≈: the same amount, converted by molar mass.
Tested on: Neisseria gonorrhoeae, GC525 (NG-2888)
Assay: In-vitro antibacterial activity, microbroth dilution MIC susceptibility testing
Assay type: cell-based
Settings: gonococcal broth, 20-24 hours at 35° C., lowest concentration preventing visible growth
Description: The in-vitro antibacterial activity of selected compounds was determined against a stain of Neisseria gonorrhoeae, GC525 (NG-2888), which is described by Rouquette-Loughlin et al, in Journal of Bacteriology, February 2003, p. 1101-1106, at p. 1103. In general, minimum inhibitory concentration (MIC) susceptibility testing followed procedures recommended by the National Committee for Clinical Laboratory Standards (NCCLS^1-2) or followed the descriptions described below:
Neisseria gonorrhoeae strains were grown on Chocolate Agar II plates (BBL—Becton Dickinson Microbiology Systems, Cockeysville, Md.) and incubated at 35° C. in a humidified 5% CO2 incubator (Forma Scientific, Marietta Ohio). For microbroth dilution MIC testing, N. gonorrhoeae were tested in gonococcal broth (GCB):
Bacterial culture identifications were confirmed by standard microbiological methods.^4 N. gonorrhoeae strains were streaked onto appropriate agar plates for visualization of purity and expected colony morphology. Gram stains were also utilized.
Bacterial stock cultures are stored as frozen suspensions at −70° C. N. gonorrhoeae cultures are suspended in inactivated Horse Serum (Colorado Serum Company, Denver, Colo.) containing 7.5% glucose prior to snap freezing in a dry ice/ethanol bath.
Frozen stock cultures were used as the initial source of organisms for performing microbroth dilution MIC testing. Stock cultures were passed on their respective growth medium at least one growth cycle (18-24 hours) prior to their use. Bacterial culture suspensions were prepared directly from Chocolate Agar II plates into 10 mL cation-adjusted Mueller-Hinton Broth (CAMHB, BBL, # BB215069). Before use, cultures were adjusted to an optical density value of […] on a Perkin-Elmer Lambda EZ150 Spectrophotometer (Wellesley, Mass.) set at a wavelength of 600 nm. Random cultures were plated for validation of actual colony counts. The adjusted cultures were diluted 400-fold (0.25 mL inoculum+100 mL GCB) into gonococcal broth producing a starting inoculum of approximately 5×10^5 cfu/mL. These cultures were inoculated into test plates (100 uL/well) using a Biomek® FX workstation (Beckman Coulter Inc., Fullerton, Calif.). The inoculated plates were placed in stacks of no more than 4 and covered with an empty plate. Plates were incubated for 20-24 hours at 35° C. in a humidified CO2 incubator.
Drug stock solutions (2 mg/mL in DMSO) were prepared on the day of testing. Drugs were weight corrected for assay content where necessary.
Microbroth dilution stock plates were prepared in two dilution series, 64-0.06 ug drug/mL and 1-0.001 ug drug/mL. For the high concentration series, 200 uL of stock solution (2 mg/mL) was added to duplicate rows of a 96-well plate. This was used as the first well in the dilution series. Serial two-fold decremental dilutions were made using a BioMek FX robot (Beckman Coulter Inc., Fullerton, Calif.) with 10 of the remaining 11 wells, each of which contained 100 uL of the appropriate solvent/diluent. Row 12 contained solvent/diluent only and served as the control. For tube one of the low concentration series, 200 uL of a 31.25 ug/mL stock was added to duplicate rows of a 96-well plate. Serial two-fold dilutions were made as described above.
Daughter plates were spotted (3.2 uL/well) from the stock plates listed above using the BioMek FX robot and were inoculated with organism (100 uL/well) as described previously.
After incubation, the degree of growth in each well was read visually with the aid of a Test Reading Mirror (Dynatech Lab 220-16, Dynex Technologies, Chantilly, Va.). 96-well test plates are read in a darkened room with a single light shining from above. The MIC is the lowest concentration of drug that prevents macroscopically visible growth under the conditions of the test. Each drug dilution series was tested in duplicate; identical results are not always obtained. If MIC values in duplicate tests differ by 1 well (two-fold), the […] value is reported. […]

Structure (SMILES)	MIC [µg/mL]
CCOC(=O)Nc1cn2ccc(-c3cccnc3)cc2n1 [Example 1A, (7-Pyridin-3-yl-imidazo[1,2-a]pyridin-2-yl)-carbamic Acid Ethyl Ester]	> 64
CCOC(=O)Nc1cn2cnc(-c3cccnc3)cc2n1 [Example 5, (7-Pyridin-3-yl-imidazo[1,2-c]pyrimidin-2-yl)-carbamic Acid Ethyl Ester]	> 64
CCNC(=O)Nc1cn2ccc(-c3c(C)noc3C)cc2n1 [Example 9, 1-[7-(3,5-Dimethyl-isoxazol-4-yl)-imidazo[1,2-a]pyridin-2-yl]-3-ethyl-urea]	> 64
CCNC(=O)Nc1cn2ccc(-c3cnn(C)c3)cc2n1 [Example 12, 1-Ethyl-3-[7-(1-methyl-1H-pyrazol-4-yl)-imidazo[1,2-a]pyridin-2-yl]-urea]	64 (≈ 225 µM)
CCNC(=O)Nc1cn2ccc(-c3cnc(OC)nc3OC)cc2n1 [Example 13, 1-[7-(2,4-Dimethoxy-pyrimidin-5-yl)-imidazo[1,2-a]pyridin-2-yl]-3-ethyl-urea]	> 64
CCNC(=O)Nc1cn2ccc(-c3c(C)nn(C(=O)OC(C)(C)C)c3C)cc2n1 [Example 14, 4-[2-(3-Ethyl-ureido)-imidazo[1,2-a]pyridin-7-yl]-3,5-dimethyl-pyrazole-1-carboxylic Acid Tert-Butyl Ester]	64 (≈ 161 µM)
CCNC(=O)Nc1cn2ccc(-c3cn[nH]c3)cc2n1 [Example 15, 1-Ethyl-3-[7-(1H-pyrazol-4-yl)-imidazo[1,2-a]pyridin-2-yl]-urea]	64 (≈ 237 µM)
CCNC(=O)Nc1nc2cc(-c3cccnc3)ccn2c1Cl [Example 16, 1-(3-Chloro-7-pyridin-3-yl-imidazo[1,2-a]pyridin-2-yl)-3-ethyl-urea]	64 (≈ 203 µM)
CCNC(=O)Nc1nc2cc(-c3cnc(N(C)C)nc3)ccn2c1Cl [Example 17, 1-[3-Chloro-7-(2-dimethylamino-pyrimidin-5-yl)-imidazo[1,2-a]pyridin-2-yl]-3-ethyl-urea]	> 32
CCNC(=O)Nc1cn2ccc(C(=O)OC)cc2n1 [Example 18, 2-(3-Ethyl-ureido)-imidazo[1,2-a]pyridine-7-carboxylic Acid Methyl Ester]	> 64
CCNC(=O)Nc1cn2ccc(C(N)=O)cc2n1 [Example 19, 2-(3-Ethyl-ureido)-imidazo[1,2-a]pyridine-7-carboxylic Acid Amide]	> 64
CCNC(=O)Nc1cn2ccc(-c3nc(C)n[nH]3)cc2n1 [Example 20, 1-Ethyl-3-[7-(5-methyl-2H-[1,2,4]triazol-3-yl)-imidazo[1,2-a]pyridin-2-yl]-urea]	> 64
CCNC(=O)Nc1cn2ccc(-c3noc(C)n3)cc2n1 [Example 22, 1-Ethyl-3-[7-(5-methyl-[1,2,4]oxadiazol-3-yl)-imidazo[1,2-a]pyridin-2-yl]-urea]	> 64
CCNC(=O)Nc1cn2ccc(C(=O)O)cc2n1 [Example 24, 2-(3-Ethyl-ureido)-imidazo[1,2-a]pyridine-7-carboxylic Acid]	> 64
CCNC(=O)Nc1cn2ccc(-c3c(C)n[nH]c3C)cc2n1 [Example 25, 1-[7-(3,5-Dimethyl-1H-pyrazol-4-yl)-imidazo[1,2-a]pyridin-2-yl]-3-ethyl-urea]	64 (≈ 215 µM)
O=C(Nc1cn2ccc(-c3cncnc3)cc2n1)NC1CC1 [Example 27, 1-Cyclopropyl-3-(7-pyrimidin-5-yl-imidazo[1,2-a]pyridin-2-yl)-urea]	64 (≈ 217 µM)
O=C(NCC(F)(F)F)Nc1cn2ccc(-c3cncnc3)cc2n1 [Example 31, 1-(7-Pyrimidin-5-yl-imidazo[1,2-a]pyridin-2-yl)-3-(2,2,2-trifluoro-ethyl)-urea]	64 (≈ 190 µM)
COCCNC(=O)Nc1cn2ccc(-c3cncnc3)cc2n1 [Example 32, 1-(2-Methoxy-ethyl)-3-(7-pyrimidin-5-yl-imidazo[1,2-a]pyridin-2-yl)-urea]	> 64
CCNC(=O)Nc1cn2ccc(C(C)=O)cc2n1 [Example 35, N-(7-acetylimidazo[1,2-a]pyridin-2-yl)-N′-ethylurea]	64 (≈ 260 µM)
CCNC(=O)Nc1cn2ccc(-c3nnc(C)o3)cc2n1 [Example 36, 1-Ethyl-3-[7-(5-methyl-[1,3,4]oxadiazol-2-yl)-imidazo[1,2-a]pyridin-2-yl]-urea]	64 (≈ 224 µM)
CCNC(=O)Nc1cn2ccc(-c3ccnc(NC(=O)OC(C)(C)C)c3)cc2n1 [Example 37, {4-[2-(3-Ethyl-ureido)-imidazo[1,2-a]pyridin-7-yl]-pyridin-2-yl}-carbamic Acid Tert-Butyl Ester]	64 (≈ 161 µM)
CCNC(=O)Nc1cn2ccc(-c3noc(C(C)C)n3)cc2n1 [Example 40, 1-Ethyl-3-[7-(5-isopropyl-[1,2,4]oxadiazol-3-yl)-imidazo[1,2-a]pyridin-2-yl]-urea]	> 64

Further lines, results first:

MIC [µg/mL]	Structure (SMILES)
16 (≈ 56.9 µM)	CCNC(=O)Nc1cn2ccc(-c3cccnc3)cc2n1 [Example 1B, 1-Ethyl-3-(7-pyridin-3-yl-imidazo[1,2-a]pyridin-2-yl)-urea]
45.3 (≈ 110 µM)	CCNC(=O)Nc1cn2ccc(-c3ccc(OCCN4CCOCC4)nc3)cc2n1 [Example 6, 1-Ethyl-3-{7-[6-(2-morpholin-4-yl-ethoxy)-pyridin-3-yl]-imidazo[1,2-a]pyridin-2-yl}-urea]
5.66 (≈ 18.2 µM)	CCNC(=O)Nc1cn2c(CO)cc(-c3cccnc3)cc2n1 [Example 7A, 1-Ethyl-3-(5-hydroxymethyl-7-pyridin-3-yl-imidazo[1,2-a]pyridin-2-yl)-urea]
0.5 (≈ 1.47 µM)	CCNC(=O)Nc1cn2c(C(=O)OC)cc(-c3cccnc3)cc2n1 [Example 7B, 2-(3-Ethyl-ureido)-7-pyridin-3-yl-imidazo[1,2-a]pyridine-5-carboxylic Acid Methyl Ester]
5.66 (≈ 20 µM)	CCNC(=O)Nc1cn2ccc(-c3cncnc3)cc2n1 [Example 8, 1-Ethyl-3-(7-pyrimidin-5-yl-imidazo[1,2-a]pyridin-2-yl)-urea]
8 (≈ 22.2 µM)	CCNC(=O)Nc1cn2ccc(-c3cnn(Cc4ccccc4)c3)cc2n1 [Example 10, 1-[7-(1-Benzyl-1H-pyrazol-4-yl)-imidazo[1,2-a]pyridin-2-yl]-3-ethyl-urea]
64 (≈ 169 µM)	CCNC(=O)Nc1cn2ccc(-c3ccc(N4CCN(C)CC4)nc3)cc2n1 [Example 11, 1-Ethyl-3-{7-[6-(4-methyl-piperazin-1-yl)-pyridin-3-yl]-imidazo[1,2-a]pyridin-2-yl}-urea]
0.13 (≈ 0.36 µM)	CCNC(=O)Nc1cn2c(-c3cnn(C)c3)cc(-c3cccnc3)cc2n1 [Example 23, 1-Ethyl-3-[5-(1-methyl-1H-pyrazol-4-yl)-7-pyridin-3-yl-imidazo[1,2-a]pyridin-2-yl]-urea]
32 (≈ 104 µM)	O=C(NCC1CC1)Nc1cn2ccc(-c3cncnc3)cc2n1 [Example 28, 1-Cyclopropylmethyl-3-(7-pyrimidin-5-yl-imidazo[1,2-a]pyridin-2-yl)-urea]
16 (≈ 54 µM)	CCCNC(=O)Nc1cn2ccc(-c3cncnc3)cc2n1 [Example 29, 1-Propyl-3-(7-pyrimidin-5-yl-imidazo[1,2-a]pyridin-2-yl)-urea]
32 (≈ 108 µM)	CC(C)NC(=O)Nc1cn2ccc(-c3cncnc3)cc2n1 [Example 30, 1-Isopropyl-3-(7-pyrimidin-5-yl-imidazo[1,2-a]pyridin-2-yl)-urea]
16 (≈ 51.9 µM)	O=C(Nc1cn2ccc(-c3cncnc3)cc2n1)NC1CCC1 [Example 33, 1-Cyclobutyl-3-(7-pyrimidin-5-yl-imidazo[1,2-a]pyridin-2-yl)-urea]
16 (≈ 54 µM)	CCNC(=O)Nc1cn2ccc(-c3ccc(N)nc3)cc2n1 [Example 34, 1-[7-(6-Amino-pyridin-3-yl)-imidazo[1,2-a]pyridin-2-yl]-3-ethyl-urea]
16 (≈ 55.5 µM)	CCNC(=O)Nc1cn2ccc(-c3csnn3)cc2n1 [Example 39, 1-Ethyl-3-(7-[1,2,3]thiadiazol-4-yl-imidazo[1,2-a]pyridin-2-yl)-urea]
